Results as given in patent US11149277B2, “Method of producing enriched exosomes” (National Health Research Institutes, priority 2016, dated 2021).

Assays:
NAMECs = test: Boyden chamber migration of NAMECs; assay type: cell-based, human; settings: GW pre-treatment, 4 days
Protocol: FIG. 3 includes a set of images and two graphs. (A) is a set of bright-field images of NAMECs treated with vehicle, GW627368X, Dynasore (1 μM), or GW627368X plus Dynasore (0.5, 1, 1.5 μM) for 4 days. Scale bar, 100 μm. (B) is a graph showing the percentage of NAMECs treated with vehicle, GW627368X, Dynasore (1 μM), or GW627368X plus Dynasore (0.75 and 1 μM) that were resistant to 0.05% trypsin. Data are means±SEM, (n=3). ***P≤0.001. (C) is a graph showing Boyden chamber migration of NAMECs treated with vehicle (Crl), GW627368X, Dynasore (1 μM), or GW627368X plus Dynasore (0.5, 0.75, 1 μM) for 4 days. Data are means±SEM (n=3). **P≤0.005. ***P≤0.001.

[1] = system: mesenchymal stem cells (MSCs); test: EV/exosome release from mesenchymal stem cells; assay type: cell-based; settings: GW for 8 days
Text: FIG. 10 includes blots and a graph. (A) is a graph showing vesicle number analysis of GW-treated mesenchymal stem cells (MSCs) P4 fractions. The CM-P4 GW-treated MSCs were collected and subjected to NanoSight Nanoparticle Tracking Analysis (NTA). Quantification of EV/exosome release is shown as the ratio of [vesicle number]/[cell number]. Data are means±SEM (n=3). ***P≤0.001. (B) is a set of blots showing the protein contents measured in the EV/exosome fraction released by MSCs treated with vehicle DMSO (MSC) or EP4 antagonists (MSCGW). The culture media (D1-4: conditioned medium from day 1 to day 4; D5-8: conditioned medium from day 5 to day 8) were collected from MSCs treated with vehicle (MSC), or GW (MSCGW) for 8 days. (C) is a set of blots showing the protein contents measured in the EV/exosome fraction released by neural stem cells (NSCs) treated with vehicle DMSO or EP4 antagonists. […]
(A) Vesicle number of GW-treated MSC P4 fractions was analyzed. […] (B) Proteins were measured in the EV/exosome fraction released by MSCs treated with vehicle DMSO, EP4 antagonists (GW), or EP4 agonist PGE2. […] (C) Cytokines were measured in the EV/exosome fraction released by MSCs treated with DMSO (MSC) or EP4 antagonist (MSCGW). […] EV/exosome cytokines released by the same number of MSCs were measured using cytokine arrays (C) and Bio-plex (D; IL-10). […]

SMILES: CCOc1c2c(c(OCC)c3ccccc13)C(=O)N(c1ccc(CC(=O)NS(=O)(=O)c3ccccc3)cc1)C2 [GW627368X]
- decrease of number of migrating cells (NAMECs): ~60%
- release of EVs/exosomes from MSCs [1]: increased the release of EVs/exosomes
